# Columns and labels:
# Experiment in all cases: Test D controlled growth environment herbicide test, pre- and postemergence
# Assay type in all cases: in vivo
# [1] = tested on: deadnettle (henbit deadnettle, Lamium amplexicaule)
# Summary of the method: (§1)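 Pre-emergence: seeds sown in silt loam soil were sprayed with compound in a non-phytotoxic solvent mix containing surfactant. Post-emergence: plants at 2 to 18 cm (1- to 4-leaf stage) in peat moss/vermiculite medium got the same formulation. Visual 0–100 rating versus controls after 14 to 21 d.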
# [2] = tested on: speedwell (bird's-eye speedwell, Veronica persica)
# Summary of the method: as §1
# [3] = tested on: wheat, winter (winter wheat, Triticum aestivum)
# Summary of the method: as §1
# [4] = tested on: lambsquarters (Chenopodium album)
# Summary of the method: as §1
# [5] = tested on: barley, winter (winter barley, Hordeum vulgare)
# Summary of the method: as §1
# [6] = tested on: galium (catchweed bedstraw, Galium aparine)
# Summary of the method: as §1
# [7] = tested on: Russian thistle (Salsola kali)
# Summary of the method: as §1
# [8] = tested on: mustard, wild (wild mustard, Sinapis arvensis)
# Summary of the method: as §1
# kochia (Kochia scoparia) = tested on: kochia (Kochia scoparia)
# Summary of the method: as §1
# [9] = tested on: field poppy (Papaver rhoeas)
# Summary of the method: as §1
# [10] = tested on: windgrass (Apera spica-venti)
# Summary of the method: as §1
# [11] = tested on: chickweed (common chickweed, Stellaria media)
# Summary of the method: as §1
# [12] = tested on: bromegrass, downy (downy bromegrass, Bromus tectorum)
# Summary of the method: as §1
# [13] = Postemergence, 31 g ai/ha, scale 0 to 100 (0 no effect, 100 complete control)
# [14] = Postemergence, 125 g ai/ha, visual rating on scale 0 (no effect) to 100 (complete control), 14 to 21 d
# [15] = Postemergence, 250 g ai/ha, scale 0 to 100 (0 no effect, 100 complete control)
# [16] = Preemergence, 125 g ai/ha, scale 0 to 100 (0 no effect, 100 complete control)
# [17] = Preemergence, 250 g ai/ha, scale 0 to 100 (0 no effect, 100 complete control)
# [18] = postemergence, 62 g ai/ha, scale 0 to 100, 0 no effect, 100 complete control
# [19] = Preemergence, 62 g ai/ha, scale 0 to 100 (0 no effect, 100 complete control)
smiles,measurement,setting,value
Cc1cc(C)c2sc(C)c(-c3c(OC(=O)OCCCl)c(C)nn(C)c3=O)c2c1 [Compound 85],Deadnettle plant response rating,[1]; [13],10
same,"Plant response rating, Deadnettle",[1]; [14],40
same,"Plant response rating, Deadnettle",[1]; [15],45
same,"Plant response rating (scale of 0 to 100), Deadnettle","[1]; Preemergence, 31 g ai/ha",0
same,"Plant response rating (scale of 0 to 100), Deadnettle","[1]; Preemergence, 62 g ai/ha",0
same,"Plant response rating, Deadnettle",[1]; [16],10
same,"Plant response rating, Deadnettle",[1]; [17],35
same,"Plant response rating, Deadnettle",[1]; [18],15
same,Speedwell plant response rating,[2]; [13],35
same,"Plant response rating, Speedwell",[2]; [14],80
same,"Plant response rating, Speedwell",[2]; [15],100
same,"Plant response rating (scale of 0 to 100), Speedwell","[2]; Preemergence, 31 g ai/ha",50
same,"Plant response rating (scale of 0 to 100), Speedwell","[2]; Preemergence, 62 g ai/ha",90
same,"Plant response rating, Speedwell",[2]; [16],100
same,"Plant response rating, Speedwell",[2]; [17],100
same,"Plant response rating, Speedwell",[2]; [18],70
same,"Wheat, Winter plant response rating",[3]; [13],0
same,"Plant response rating, Wheat, Winter",[3]; [14],0
same,"Plant response rating, Wheat, Winter",[3]; [15],10
same,"Plant response rating (scale of 0 to 100), Wheat, Winter","[3]; Preemergence, 31 g ai/ha",0
same,"Plant response rating (scale of 0 to 100), Wheat, Winter","[3]; Preemergence, 62 g ai/ha",0
same,"Plant response rating, Wheat, Winter",[3]; [16],5
same,"Plant response rating, Wheat, Winter",[3]; [17],15
same,"Plant response rating, Wheat, Winter",[3]; [18],0
same,Lambsquarters plant response rating,[4]; [13],80
same,"Plant response rating, Lambsquarters",[4]; [14],95
same,"Plant response rating, Lambsquarters",[4]; [15],95
same,"Plant response rating (scale of 0 to 100), Lambsquarters","[4]; Preemergence, 31 g ai/ha",25
same,"Plant response rating (scale of 0 to 100), Lambsquarters","[4]; Preemergence, 62 g ai/ha",100
same,"Plant response rating, Lambsquarters",[4]; [16],100
same,"Plant response rating, Lambsquarters",[4]; [17],100
same,"Plant response rating, Lambsquarters",[4]; [18],85
same,"Barley, Winter plant response rating",[5]; [13],0
same,"Plant response rating, Barley, Winter",[5]; [14],5
same,"Plant response rating, Barley, Winter",[5]; [15],10
same,"Plant response rating (scale of 0 to 100), Barley, Winter","[5]; Preemergence, 31 g ai/ha",0
same,"Plant response rating, Barley, Winter",[5]; [19],0
same,"Plant response rating, Barley, Winter",[5]; [16],0
same,"Plant response rating, Barley, Winter",[5]; [17],15
same,"Plant response rating, Barley, Winter",[5]; [18],0
same,Galium plant response rating,[6]; [13],85
same,"Plant response rating, Galium",[6]; [14],100
same,"Plant response rating, Galium",[6]; [15],100
same,"Plant response rating (scale of 0 to 100), Galium","[6]; Preemergence, 31 g ai/ha",30
same,"Plant response rating (scale of 0 to 100), Galium","[6]; Preemergence, 62 g ai/ha",70
same,"Plant response rating, Galium",[6]; [16],75
same,"Plant response rating, Galium",[6]; [17],100
same,"Plant response rating, Galium",[6]; [18],95
same,Russian Thistle plant response rating,[7]; [13],65
same,"Plant response rating, Russian Thistle",[7]; [14],80
same,"Plant response rating, Russian Thistle",[7]; [15],90
same,"Plant response rating (scale of 0 to 100), Russian Thistle","[7]; Preemergence, 31 g ai/ha",5
same,"Plant response rating (scale of 0 to 100), Russian Thistle","[7]; Preemergence, 62 g ai/ha",10
same,"Plant response rating, Russian Thistle",[7]; [16],25
same,"Plant response rating, Russian Thistle",[7]; [17],75
same,"Plant response rating, Russian Thistle",[7]; [18],75
same,"Mustard, Wild plant response rating",[8]; [13],10
same,"Plant response rating, Mustard, Wild",[8]; [14],30
same,"Plant response rating, Mustard, Wild",[8]; [15],80
same,"Plant response rating (scale of 0 to 100), Mustard, Wild","[8]; Preemergence, 31 g ai/ha",25
same,"Plant response rating (scale of 0 to 100), Mustard, Wild","[8]; Preemergence, 62 g ai/ha",25
same,"Plant response rating, Mustard, Wild",[8]; [16],35
same,"Plant response rating, Mustard, Wild",[8]; [17],40
same,"Plant response rating, Mustard, Wild",[8]; [18],25
same,Kochia plant response rating,kochia (Kochia scoparia); [13],40
same,"Plant response rating, Kochia",kochia (Kochia scoparia); [14],70
same,"Plant response rating, Kochia",kochia (Kochia scoparia); [15],75
same,"Plant response rating (scale of 0 to 100), Kochia","kochia (Kochia scoparia); Preemergence, 31 g ai/ha",5
same,"Plant response rating (scale of 0 to 100), Kochia","kochia (Kochia scoparia); Preemergence, 62 g ai/ha",10
same,"Plant response rating, Kochia",kochia (Kochia scoparia); [16],10
same,"Plant response rating, Kochia",kochia (Kochia scoparia); [17],45
same,"Plant response rating, Kochia",kochia (Kochia scoparia); [18],65
same,Field Poppy plant response rating,[9]; [13],70
same,"Plant response rating, Field Poppy",[9]; [14],80
same,"Plant response rating, Field Poppy",[9]; [15],95
same,"Plant response rating, Field Poppy",[9]; [17],95
same,"Plant response rating, Field Poppy",[9]; [18],90
same,Windgrass plant response rating,[10]; [13],60
same,"Plant response rating, Windgrass",[10]; [14],80
same,"Plant response rating, Windgrass",[10]; [15],85
same,"Plant response rating (scale of 0 to 100), Windgrass","[10]; Preemergence, 31 g ai/ha",55
same,"Plant response rating (scale of 0 to 100), Windgrass","[10]; Preemergence, 62 g ai/ha",70
same,"Plant response rating, Windgrass",[10]; [16],95
same,"Plant response rating, Windgrass",[10]; [17],100
same,"Plant response rating, Windgrass",[10]; [18],70
same,Chickweed plant response rating,[11]; [13],90
same,"Plant response rating, Chickweed",[11]; [14],100
same,"Plant response rating, Chickweed",[11]; [15],100
same,"Plant response rating (scale of 0 to 100), Chickweed","[11]; Preemergence, 31 g ai/ha",100
same,"Plant response rating (scale of 0 to 100), Chickweed","[11]; Preemergence, 62 g ai/ha",100
same,"Plant response rating, Chickweed",[11]; [16],100
same,"Plant response rating, Chickweed",[11]; [17],100
same,"Plant response rating, Chickweed",[11]; [18],100
same,"Bromegrass, Downy plant response rating",[12]; [13],30
same,"Plant response rating, Bromegrass, Downy",[12]; [14],35
same,"Plant response rating, Bromegrass, Downy",[12]; [15],60
same,"Plant response rating (scale of 0 to 100), Bromegrass, Downy","[12]; Preemergence, 31 g ai/ha",15
same,"Plant response rating, Bromegrass, Downy",[12]; [19],35
same,"Plant response rating, Bromegrass, Downy",[12]; [16],55
same,"Plant response rating, Bromegrass, Downy",[12]; [17],80
same,"Plant response rating, Bromegrass, Downy",[12]; [18],30
